{"source": "ChEMBL document CHEMBL1201862", "about": "“PubChem BioAssay data set” (2004)", "test_in_all_cases": "inhibition of tumour cell growth, NCI panel, 48 h", "key": {"786-0": {"tested_on": "786-0"}, "A498": {"tested_on": "A498"}, "A549": {"tested_on": "A549"}, "ACHN": {"tested_on": "ACHN"}, "BT-549": {"tested_on": "BT-549"}, "CAKI-1": {"tested_on": "CAKI-1"}, "CCRF-CEM": {"tested_on": "CCRF-CEM"}, "COLO 205": {"tested_on": "COLO 205"}, "DU-145": {"tested_on": "DU-145"}, "EKVX": {"tested_on": "EKVX"}, "HCT-116": {"tested_on": "HCT-116"}, "HCT-15": {"tested_on": "HCT-15"}, "HOP-62": {"tested_on": "HOP-62"}, "HT-29": {"tested_on": "HT-29"}, "Hs-578T": {"tested_on": "Hs-578T"}, "KM12": {"tested_on": "KM12"}, "LOX IMVI": {"tested_on": "LOX IMVI"}, "M14": {"tested_on": "M14"}, "MCF7": {"tested_on": "MCF7"}, "MDA-MB-231": {"tested_on": "MDA-MB-231"}, "MDA-MB-435": {"tested_on": "MDA-MB-435"}, "MDA-N": {"tested_on": "MDA-N"}, "Malme-3M": {"tested_on": "Malme-3M"}, "NCI-H23": {"tested_on": "NCI-H23"}, "NCI-H460": {"tested_on": "NCI-H460"}, "NCI-H522": {"tested_on": "NCI-H522"}, "NCI/ADR-RES": {"tested_on": "NCI/ADR-RES"}, "OVCAR-3": {"tested_on": "OVCAR-3"}, "OVCAR-4": {"tested_on": "OVCAR-4"}, "OVCAR-5": {"tested_on": "OVCAR-5"}, "PC-3": {"tested_on": "PC-3"}, "RPMI-8226": {"tested_on": "RPMI-8226"}, "RXF 393": {"tested_on": "RXF 393"}, "SF-295": {"tested_on": "SF-295"}, "SF-539": {"tested_on": "SF-539"}, "SK-MEL-28": {"tested_on": "SK-MEL-28"}, "SK-MEL-2": {"tested_on": "SK-MEL-2"}, "SK-MEL-5": {"tested_on": "SK-MEL-5"}, "SK-OV-3": {"tested_on": "SK-OV-3"}, "SN12C": {"tested_on": "SN12C"}, "SNB-19": {"tested_on": "SNB-19"}, "SNB-75": {"tested_on": "SNB-75"}, "SR": {"tested_on": "SR"}, "SW-620": {"tested_on": "SW-620"}, "T47D": {"tested_on": "T47D"}, "TK-10": {"tested_on": "TK-10"}, "U-251": {"tested_on": "U-251"}, "UACC-257": {"tested_on": "UACC-257"}, "UACC-62": {"tested_on": "UACC-62"}, "UO-31": {"tested_on": "UO-31"}}, "note": "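Compound exposure: 48 hours, 5 concentrations, 96-well plates. At the GI50, growth is halved.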 Activity calls are given as the source filed them. No stated cut-off is given here; in the data, active = GI50 up to about 1.1 µM and inactive = higher."}
{"smiles": "O=C(O)C1C2CCC(O2)C1C(=O)NCc1cccnc1", "note": "(stereo not given)", "values": [{"measurement": "GI50", "setting": "786-0", "value": "> 100 µM (inactive)"}, {"measurement": "GI50", "setting": "A498", "value": "> 100 µM (inactive)"}, {"measurement": "GI50", "setting": "A549", "value": "> 100 µM (inactive)"}, {"measurement": "GI50", "setting": "ACHN", "value": "> 100 µM (inactive)"}, {"measurement": "GI50", "setting": "BT-549", "value": "> 100 µM (inactive)"}, {"measurement": "GI50", "setting": "CAKI-1", "value": "> 100 µM (inactive)"}, {"measurement": "GI50", "setting": "CCRF-CEM", "value": "> 100 µM (inactive)"}, {"measurement": "GI50", "setting": "COLO 205", "value": "> 100 µM (inactive)"}, {"measurement": "GI50", "setting": "DU-145", "value": "> 100 µM (inactive)"}, {"measurement": "GI50", "setting": "EKVX", "value": "> 100 µM (inactive)"}, {"measurement": "GI50", "setting": "HCT-116", "value": "> 100 µM (inactive)"}, {"measurement": "GI50", "setting": "HCT-15", "value": "> 100", "unit": "µM"}, {"measurement": "GI50", "setting": "HOP-62", "value": "> 100 µM (inactive)"}, {"measurement": "GI50", "setting": "HT-29", "value": "> 100 µM (inactive)"}, {"measurement": "GI50", "setting": "Hs-578T", "value": "> 100 µM (inactive)"}, {"measurement": "GI50", "setting": "KM12", "value": "> 100 µM (inactive)"}, {"measurement": "GI50", "setting": "LOX IMVI", "value": "> 100 µM (inactive)"}, {"measurement": "GI50", "setting": "M14", "value": "> 100 µM (inactive)"}, {"measurement": "GI50", "setting": "MCF7", "value": "> 100 µM (inactive)"}, {"measurement": "GI50", "setting": "MDA-MB-231", "value": "> 100 µM (inactive)"}, {"measurement": "GI50", "setting": "MDA-MB-435", "value": "> 100 µM (inactive)"}, {"measurement": "GI50", "setting": "MDA-N", "value": "> 100 µM (inactive)"}, {"measurement": "GI50", "setting": "Malme-3M", "value": "> 100 µM (inactive)"}, {"measurement": "GI50", "setting": "NCI-H23", "value": "> 100 µM (inactive)"}, {"measurement": "GI50", "setting": "NCI-H460", "value": "> 100 µM (inactive)"}, {"measurement": "GI50", "setting": "NCI-H522", "value": "> 100 µM (inactive)"}, {"measurement": "GI50", "setting": "NCI/ADR-RES", "value": "> 100 µM (inactive)"}, {"measurement": "GI50", "setting": "OVCAR-3", "value": "> 100 µM (inactive)"}, {"measurement": "GI50", "setting": "OVCAR-4", "value": "> 100 µM (inactive)"}, {"measurement": "GI50", "setting": "OVCAR-5", "value": "> 100 µM (inactive)"}, {"measurement": "GI50", "setting": "PC-3", "value": "> 100 µM (inactive)"}, {"measurement": "GI50", "setting": "RPMI-8226", "value": "> 100 µM (inactive)"}, {"measurement": "GI50", "setting": "RXF 393", "value": "> 100 µM (inactive)"}, {"measurement": "GI50", "setting": "SF-295", "value": "> 100 µM (inactive)"}, {"measurement": "GI50", "setting": "SF-539", "value": "> 100 µM (inactive)"}, {"measurement": "GI50", "setting": "SK-MEL-28", "value": "> 100 µM (inactive)"}, {"measurement": "GI50", "setting": "SK-MEL-2", "value": "> 100 µM (inactive)"}, {"measurement": "GI50", "setting": "SK-MEL-5", "value": "> 100 µM (inactive)"}, {"measurement": "GI50", "setting": "SK-OV-3", "value": "> 100 µM (inactive)"}, {"measurement": "GI50", "setting": "SN12C", "value": "> 100 µM (inactive)"}, {"measurement": "GI50", "setting": "SNB-19", "value": "> 100 µM (inactive)"}, {"measurement": "GI50", "setting": "SNB-75", "value": "> 100 µM (inactive)"}, {"measurement": "GI50", "setting": "SR", "value": "> 100 µM (inactive)"}, {"measurement": "GI50", "setting": "SW-620", "value": "> 100 µM (inactive)"}, {"measurement": "GI50", "setting": "T47D", "value": "> 100 µM (inactive)"}, {"measurement": "GI50", "setting": "TK-10", "value": "> 100 µM (inactive)"}, {"measurement": "GI50", "setting": "U-251", "value": "> 100 µM (inactive)"}, {"measurement": "GI50", "setting": "UACC-257", "value": "> 100 µM (inactive)"}, {"measurement": "GI50", "setting": "UACC-62", "value": "> 100 µM (inactive)"}, {"measurement": "GI50", "setting": "UO-31", "value": "> 100 µM (inactive)"}]}
